IC50 data for 1 substance are collected here from paper PMC3293837, “Biophysical Property and Broad Anti-HIV Activity of Albuvirtide, a 3-Maleimimidopropionic Acid-Modified Peptide Fusion Inhibitor” (PLoS ONE, 2012).

Holding throughout (type): cell-based, HIV-1
Test [1] concerns BC14 pseudovirus (CRF07_BC). As to conditions: R5, TZM-bl, 48 h, triplicate, mean ± SD of at least three independent experiments. From the text:
(§1) A panel of plasmids encoding HIV-1 Envs were obtained through the AIDS Research and Reference Reagent Program (ARRRP), Division of AIDS, NIAID, NIH, including subtype A Env clones pSVIII-92RW020.5 and 92UG037.8 from Dr. B.H. Hahn; subtype B Env clones SC422661.8, TRO.11 and AC10.0.29 from Drs. D. Montefiori, F. Gao and M. Li, pRHPA4259.7 and pREJO4541.67 from Drs. B.H. Hahn and J.F. Salazar-Gonzalez, and pCAAN5342.A2 from Drs. B.H. Hahn and D.L. Kothe; subtype C Env clones Du172.17 and Du422.1 from Drs. D. Montefiori, F. Gao, S. Abdool Karim and G. Ramjee, CAP45.2.00.G3 from Drs. L. Morris, K. Mlisana and D. Montefiori, ZM197M.PB7 from Drs. B.H. Hahn, Y. Li and J.F. Salazar-Gonzalez, ZM109F.PB4 from Drs. E. Hunter and C. Derdeyn. Six CRF07_BC Env clones (CH064.20, CH070.1, CH091.9, CH110.2, CH119.10 and CH120.6) were generous gifts by Dr. Y. Shao in the Chinese Center for Disease Control and Prevention, Beijing, China. A panel of Env clones derived from subtype B′ (B01, B02, B04, and 43-22), CRF01_AE (SHX335.24, YN192.31, AE01, AE03, GX2010.36, GX11.13, GX2010.36H, BJ5.11), and CRF07_BC (BC02, BC03, BC05, BC07, BC14, SC19-15, BJ22-5, YN148R-9, XJ50-6, HB5-3) were kindly provided by Dr. Y. Wang from the National Institute for the Control of Pharmaceutical and Biological Products, Beijing, China.

The test system of test [2] is 92RW020 pseudovirus (subtype A). As to conditions: 92RW020, subtype A, R5; TZM-bl, 48 h; triplicate, mean ± SD of three independent experiments.
Excerpt: as §1

Test [3] has as its system CH091 pseudovirus (CRF07_BC). The note with it: R5, TZM-bl, 48 h, triplicate, mean ± SD of at least three independent experiments.
Excerpt: as §1

Test [4] deals with CAP45.2.00.G3 pseudovirus (subtype C). As to conditions: CAP45.2.00.G3, subtype C, R5; TZM-bl, 48 h; triplicate, mean ± SD of three independent experiments.
Excerpt: as §1

Test [5] deals with BJ22-5 pseudovirus (CRF07_BC). As to conditions: BJ22-5, CRF07_BC, R5; TZM-bl, 48 h; triplicate, mean ± SD of at least three independent experiments.
Excerpt: as §1

For test [6], the system named is TRO.11 pseudovirus (subtype B). As to conditions: TRO.11, subtype B, R5; TZM-bl, 48 h; triplicate, mean ± SD of three independent experiments.
Excerpt: as §1

Test [7] has as its system GX2010.36H pseudovirus (CRF01_AE). The note with it: R5, TZM-bl, 48 h, triplicate, mean ± SD of at least three independent experiments.
Excerpt: as §1

Test [8] relates to HB5-3 pseudovirus (CRF07_BC). As to conditions: HB5-3, CRF07_BC, R5; TZM-bl, 48 h; triplicate, mean ± SD of at least three independent experiments.
Excerpt: as §1

The subject of test [9] is SC19-15 pseudovirus (CRF07_BC). As to conditions: SC19-15, CRF07_BC, R5; TZM-bl, 48 h; triplicate, mean ± SD of at least three independent experiments.
Excerpt: as §1

The test system of test [10] is AC10.0.29 pseudovirus (subtype B). The note with it: AC10.0.29, subtype B, R5; TZM-bl, 48 h; triplicate, mean ± SD of three independent experiments.
Excerpt: as §1

The test system of test [11] is ZM197M.PB7 pseudovirus (subtype C). As to conditions: R5, TZM-bl, 48 h, triplicate, mean ± SD of three independent experiments.
Excerpt: as §1

The subject of test [12] is BC07 pseudovirus (CRF07_BC). The note with it: R5, TZM-bl, 48 h, triplicate, mean ± SD of at least three independent experiments.
Excerpt: as §1

Test [13] has as its system XJ50-6 pseudovirus (CRF07_BC). The note with it: XJ50-6, CRF07_BC, R5; TZM-bl, 48 h; triplicate, mean ± SD of at least three independent experiments.
Excerpt: as §1

Test [14] concerns B02 pseudovirus (subtype B′). As to conditions: R5, TZM-bl, 48 h, triplicate, mean ± SD of at least three independent experiments.
Excerpt: as §1

Test [15] relates to CH119 pseudovirus (CRF07_BC). The note with it: R5, TZM-bl, 48 h, triplicate, mean ± SD of at least three independent experiments.
Excerpt: as §1

Test [16] concerns GX2010.36 pseudovirus (CRF01_AE). As to conditions: GX2010.36, CRF01_AE, R5; TZM-bl, 48 h; triplicate, mean ± SD of at least three independent experiments.
Excerpt: as §1

In test [17] the test system is 92UG037.8 pseudovirus (subtype A). As to conditions: 92UG037.8, subtype A, R5; TZM-bl, 48 h; triplicate, mean ± SD of three independent experiments.
Excerpt: as §1

The test system of test [18] is RHPA4259 pseudovirus (subtype B). The note with it: R5, TZM-bl, 48 h, triplicate, mean ± SD of three independent experiments.
Excerpt: as §1

In test [19] the test system is Du422.1 pseudovirus (subtype C). The note with it: Du422.1, subtype C, R5; TZM-bl, 48 h; triplicate, mean ± SD of three independent experiments.
Excerpt: as §1

The subject of test [20] is GX11.13 pseudovirus (CRF01_AE). As to conditions: GX11.13, CRF01_AE, R5; TZM-bl, 48 h; triplicate, mean ± SD of at least three independent experiments.
Excerpt: as §1

The test system of test [21] is REJO4541 pseudovirus (subtype B). The note with it: R5, TZM-bl, 48 h, triplicate, mean ± SD of three independent experiments.
Excerpt: as §1

In test [22] the test system is AE01 pseudovirus (CRF01_AE). As to conditions: R5, TZM-bl, 48 h, triplicate, mean ± SD of at least three independent experiments.
Excerpt: as §1

As for enfuvirtide, the half-maximal inhibitory concentration (IC50) was determined as 109 ± 52.6 nM in test [1]; 25.4 ± 9.81 nM in test [2]; 65.9 ± 14.3 nM in [3]; 96.2 ± 6.91 nM in test [4]; 25.8 ± 4.17 nM in test [5]; 334 ± 48.9 nM in [6]. The half-inhibitory concentration (IC50) in test [7] turned out to be 25.9 ± 0.28 nM; in test [8] it was 23.1 ± 2.55 nM; in [9] it was 7.61 ± 0.97 nM; in test [10], 10.1 ± 0.45 nM; in test [11], 63.3 ± 17 nM; in [12], 12.5 ± 1.58 nM. The concentration for half-maximal inhibition (IC50) in test [13] worked out at 81.1 ± 17.6 nM; in [14], 8.59 ± 0.8 nM; in test [15], 22.1 ± 2.74 nM; in test [16] it was 18.1 ± 3.75 nM; in [17], 3.55 ± 0.95 nM; in [18] it was 281.9 ± 0.57 nM. Moreover, the IC50 came to 28.4 ± 5.14 nM in test [19], 6.6 ± 0.32 nM in test [20], 78.1 ± 11.3 nM in test [21] and 24.8 ± 2.25 nM in [22].
